Read-outs that look alike come from different tables or passages of the source.
Key:
[1] = system: hepatitis C virus (HCV); assay: Activity against hepatitis C virus (data not shown)
[2] = biological target: T1, PAPD7 varX1 (experimental fragment and full length) (Homo sapiens, UniProt Q5XG87); assay: Y3H ULTImate YChemH competition with free compound; assay type: binding; conditions: probe HBX129653 or HBX129654 1 μM, free compound 0-20 μM, FIG. 3-6
T1 construct: PAPD7 var1 full length; host or cells: diploid yeast from YHGX13 (prey) x YPT6AT (DHFR hook)
T1 sequence (Q5XG87 whole entry, the tested form may be a part): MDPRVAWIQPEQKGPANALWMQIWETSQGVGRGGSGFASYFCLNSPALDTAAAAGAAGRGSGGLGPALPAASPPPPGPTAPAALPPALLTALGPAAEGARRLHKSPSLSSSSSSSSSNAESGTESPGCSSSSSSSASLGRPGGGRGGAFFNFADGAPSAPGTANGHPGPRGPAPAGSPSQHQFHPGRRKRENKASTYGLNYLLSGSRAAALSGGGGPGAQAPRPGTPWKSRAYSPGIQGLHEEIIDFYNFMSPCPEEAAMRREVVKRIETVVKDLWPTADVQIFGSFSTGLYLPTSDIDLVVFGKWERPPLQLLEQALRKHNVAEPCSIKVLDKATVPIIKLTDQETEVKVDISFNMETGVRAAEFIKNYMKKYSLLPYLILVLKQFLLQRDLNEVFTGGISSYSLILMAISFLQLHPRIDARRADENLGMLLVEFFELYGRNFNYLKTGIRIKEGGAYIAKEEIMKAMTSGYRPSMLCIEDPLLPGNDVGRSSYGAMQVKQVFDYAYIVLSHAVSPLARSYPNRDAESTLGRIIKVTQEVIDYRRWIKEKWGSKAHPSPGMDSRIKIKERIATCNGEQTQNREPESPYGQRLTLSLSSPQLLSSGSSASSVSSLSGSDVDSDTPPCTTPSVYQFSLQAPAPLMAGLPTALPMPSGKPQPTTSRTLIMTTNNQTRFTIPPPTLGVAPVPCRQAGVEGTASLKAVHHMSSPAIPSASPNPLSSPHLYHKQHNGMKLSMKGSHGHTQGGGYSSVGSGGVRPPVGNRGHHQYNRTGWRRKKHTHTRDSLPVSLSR
Description: (§1) The competition assays were performed on selective medium at 8 concentrations of the free compound (0, 0.25, 0.5, 1, 2, 5, 10 and 20 μM) and a consistent concentration for the tagged Y3H-compound (1 μM).

[3] = biological target: T2, PAPD5 var1 (experimental fragment and full length) (Homo sapiens, UniProt Q8NDF8); assay: Y3H ULTImate YChemH competition with free compound; assay type: binding; conditions: probe HBX129653 or HBX129654 1 μM, free compound 0-20 μM, FIG. 3-6
T2 construct: PAPD5 var1 full length; host or cells: diploid yeast from YHGX13 (prey) x YPT6AT (DHFR hook)
T2 sequence (Q8NDF8 1-698 isoform Q8NDF8-5): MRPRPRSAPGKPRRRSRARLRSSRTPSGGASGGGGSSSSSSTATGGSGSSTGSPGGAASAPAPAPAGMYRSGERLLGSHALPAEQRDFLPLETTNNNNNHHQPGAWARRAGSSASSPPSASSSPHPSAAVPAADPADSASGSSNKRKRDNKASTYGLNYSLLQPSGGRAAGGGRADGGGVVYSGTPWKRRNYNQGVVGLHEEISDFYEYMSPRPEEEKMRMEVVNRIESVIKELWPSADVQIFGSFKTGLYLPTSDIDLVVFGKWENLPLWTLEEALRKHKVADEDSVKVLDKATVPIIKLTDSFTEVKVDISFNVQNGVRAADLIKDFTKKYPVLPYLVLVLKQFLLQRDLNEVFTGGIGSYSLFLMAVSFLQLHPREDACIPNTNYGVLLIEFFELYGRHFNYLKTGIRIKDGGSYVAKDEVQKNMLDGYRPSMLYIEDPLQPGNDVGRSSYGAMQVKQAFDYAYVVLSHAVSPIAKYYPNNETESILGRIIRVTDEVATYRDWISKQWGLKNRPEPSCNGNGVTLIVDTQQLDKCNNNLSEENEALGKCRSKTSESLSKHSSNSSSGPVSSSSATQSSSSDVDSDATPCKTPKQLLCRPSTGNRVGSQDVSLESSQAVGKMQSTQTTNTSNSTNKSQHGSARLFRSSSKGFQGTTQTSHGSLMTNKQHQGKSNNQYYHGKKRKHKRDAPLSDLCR
Description: as §1

[4] = biological target: T3, PAPD5 var1 full length (Homo sapiens, UniProt Q8NDF8); assay: Y3H ULTImate YChemH 1-by-1 validation, full length proteins; assay type: binding; conditions: tested at 5, 10 and 20 μM, FIG. 2
T3 construct: PAPD5 var1 full length; host or cells: diploid yeast from YHGX13 (prey) x YPT6AT (DHFR hook)
T3 sequence (Q8NDF8 1-698 isoform Q8NDF8-5): as above
Description: (§2) The coding sequence of full-length PAPD5var1 (NM_001040284.2) and PAPD7varX1 (XM_005248234.2) were reconstituted from an N-terminal codon-optimized gene fragment (to remove high GC content) and commercially available clones of the C-terminal regions of the proteins and cloned in frame with the Gal4 Activation Domain (AD) into plasmid pP7 (AD-Prey), derived from the original pGADGH (Bartel et al., 1993 in Cellular interactions in development: A practical approach. ed. Hartley, D. A., Oxford University Press, Oxford, pp. 153-179). The constructs were checked by sequencing the entire inserts. For each prey, a mini-mating was carried out between YHGX13 (Y187 ade2-101::IoxP-kanMX-IoxP, matα) transformed with the prey plasmids and YPT6AT yeast cells (mata) transformed with the DHFR hook (Dihydrofolate reductase) to produce a diploid yeast culture. For each interaction, DO1, 1/10, 1/100 and 1/1000 of the diploid yeast culture expressing both hook and prey constructs were spotted on a selective medium without tryptophan, leucine and histidine and supplemented with the chemical probe and FK506. Interactions were tested in duplicate. One plate was used per chemical compound and concentration (DMSO, 5, 10 and 20 μM of HBX129653, 5, 10 and 20 μM of HBX129654, 5 μM of HBX24786 Trimethoprim (TMP) and 5 μM of HBX129634 (TMP-PEG5-OH)). Plates were incubated at 30° C. for 3 days.
(§3) In a second validation step, full length proteins for PAPD5 and PAPD7 were synthesized and used for 1-by-1 validation (as described in the Materials and Method section) with DHQ and THP (Table 8).

[5] = biological target: T4, PAPD7 var1 full length (Homo sapiens, UniProt Q5XG87); assay: as above; assay type: binding; conditions: tested at 5, 10 and 20 μM, FIG. 2
T4 construct: PAPD7 var1 full length; host or cells: diploid yeast from YHGX13 (prey) x YPT6AT (DHFR hook)
T4 sequence (Q5XG87 whole entry): as the sequence (Q5XG87 whole entry, the tested form may be a part) above
Description: as §2, §3

[6] = system: PAPD7 prey fragment; assay: Y3H ULTImate YChemH 1-by-1 validation, prey fragments; assay type: binding, human; conditions: tested at 5, 10 and 20 μM, FIG. 1
Description: (§4) In this validation step each one identified fragment prey and one chemical probe (HBX129653, HBX129654) is tested in a 1-by-1 experiment. The plasmids from 3 selected preys from the screening library were extracted from the yeast cells, amplified in E. coli and re-transformed into YHGX13 yeast cells. For each interaction, DO1, 1/10, 1/100 and 1/1000 of the diploid yeast culture expressing both hook and prey constructs were spotted on a selective medium without tryptophan, leucine and histidine and supplemented with the chemical probe and FK506. Interactions were tested in duplicate. One plate was used per chemical compound and concentration (DMSO, 5, 10 and 20 μM of HBX129653, 5, 10 and 20 μM of HBX129654, 5 μM of HBX24786 Trimethoprim (TMP) and 5 μM of HBX129634 (TMP-PEG5-OH)). Plates were incubated at 30° C. for 3 days.
(§5) In a first validation step three fragments identified in the first screen were selected for the 1-by-1 validation assay (as described in the Materials and Method section) and tested at three different concentrations (5, 10 and 20 μM) (Table 7).

[7] = system: PAPD5 variant 1 and variant 2 prey fragments; assay: as above; assay type: binding, human; conditions: PAPD5 variant 1 and 2 fragments; tested at 5, 10 and 20 μM; FIG. 1
Description: as §4, §5

[8] = system: HBV; assay: HBsAg and HBeAg secretion in HepG2.2.15 cells; assay type: cell-based; conditions: Hepatitis B virus, 72 h, incubated for 3 days, supernatant, CLIA ELISA
Description: To evaluate the impact on HBV antigen expression and secretion, supernatants were collected on Day 11. HBV HBsAg and HBeAg levels were measured using CLIA ELISA Kits (Autobio Diagnostic #CL0310-2, #CL0312-2), according to the manufacturer's protocol. Briefly, 25 μL of supernatant per well were transferred to the respective antibody coated microtiter plate and 25 μL of enzyme conjugate reagent were added. The plate was incubated for 60 min on a shaker at room temperature before the wells were washed five times with washing buffer using an automatic washer. 25 μL of substrate A and B were added to each well. The plates were incubated on a shaker for 10 min at room temperature before luminescence was measured using an Envision luminescence reader (Perkin Elmer).
The potency of DHQ and THP and their variants against HBV infection were measured in HepG2.2.15 cells using HBsAg and HBeAg as read out.
HepG2.2.15 cells (Sells et al 1987 Proc Natl Acad Sci USA 84, 1005-1009) were cultured in 96 well plates (15.000 cells/well in 100 uL) in DMEM+GluTaMax-1 (GiBCO Cat. NO. 10569), 1% Pen Strep (Gibco Cat. No. 15140), 10% FBS (Clontech Cat. No. 631106), Geneticin […] (Invitrogen 10131035). The compunds were tested using three-fold serial dilutions in DMSO with a top concentration of 100 μM and 9 serial dilutions. Each compound was tested in quadricate. The cells were incubated for 3 days, supernatents were collected and HBsAg and HBeAg were measured as described in the Materials and Methods section.

[9] = system: PAPD7; assay: Y3H ULTImate YChemH screen; assay type: binding; set-up: key: confidence score of A (scale A-D); conditions: prey PAPD7; cDNA Human placenta library
Description: (§6) The two compounds were provided by Roche to HYBRIGENICS SERVICES SAS and tested for permeability and toxicity. Compounds were then screened against HYBRIGENICS's cDNA Human placenta library (PLA). The screens were carried out according to the optimized cell-to-cell mating protocol developed for Hybrigenics ULTImate Y2H™ using at different compound concentration (Table 2).
(§7) Clones obtained from the screen were picked in 96-well format and clones positive for growth under selective conditions (HIS+) were evaluated in a dependency assay using spot assays. Only clones that were able to grow on selective medium in the presence of the tagged compound were being picked up, processed (cell lysis, PCR, gene sequencing) and mapped for protein alignment using Blast analysis.
(§8) Both proteins PAPD5 (variant 1: NP_001035374; variant 2: NP_001035375) and PAPD7 (XP_005248291) were identified by a numerous number of fragments in the Y3H screen for both compounds (DHQ and THP) as described in the Materials and Method section. The identified proteins were ranked with a confidence score of A (scale A-D) by HYBRIGENICS (Table 6).

[10] = system: PAPD5 variant 2; assay: Y3H ULTImate YChemH screen; assay type: binding; set-up: key: confidence score of A (scale A-D); conditions: prey PAPD5 variant 2; cDNA Human placenta library
Description: as §6, §7, §8

[11] = system: PAPD5 variant 1; assay: Y3H ULTImate YChemH screen; assay type: binding; set-up: key: confidence score of A (scale A-D); conditions: prey PAPD5 variant 1; cDNA Human placenta library
Description: as §6, §7, §8

Row | SMILES | activity against hepatitis C virus (HCV) [1] | competition of free compound with chemical probe [2] | competition of free compound with chemical probe [3] | 1-by-1 validation of interaction with full length protein [4] | 1-by-1 validation of interaction with full length protein [5] | 1-by-1 validation of binding to prey fragments [6] | 1-by-1 validation of binding to prey fragments [7] | IC50 ([8]; read-out: IC50 HBsAg) [nM] | Confidence score [9] | Confidence score [10] | IC50 ([8]; read-out: IC50 HBeAg) [nM] | Confidence score [11]
1 | COc1cc(N2CCc3nc(-c4ncccn4)ncc3[C@H]2C)cc(F)c1F [MOL654] | inactive | competition could be observed | competition could be observed | confirmed at the lowest tested concentration | confirmed at the lowest tested concentration | specific binders | specific binders | 3 |  |  |  | 
2 | COc1cc(Cc2cnc(N)nc2N)cc(OC)c1OCCOCCOCCOCCOCCOCCOc1cc(N2CCc3nc(-c4ncccn4)ncc3[C@H]2C)cc(F)c1F [HBX129654] |  |  |  |  |  |  |  | 299 | A | A |  | 
3 | COc1cccc(-c2ncc3c(n2)CCN(c2cc(F)c(F)c(OC)c2)C3)n1 [INACT654] |  |  |  |  |  |  |  | > 25000 |  |  |  | 
4 | COCCCOc1cc2c(cc1OC)-c1cc(=O)c(C(=O)O)cn1[C@@H](C(C)C)C2 [INACT653] |  | less binding affinity | less binding affinity |  |  |  |  |  |  |  |  | 
5 | COCCCOc1cc2c(cc1Cl)-c1cc(=O)c(C(=O)O)cn1[C@H](C(C)C)C2 [MOL653] | inactive | competition could be observed | competition could be observed | confirmed at the lowest tested concentration | confirmed at the lowest tested concentration | specific binders | specific binders | 3 |  |  | 7 | 
6 | COc1cc2c(cc1OCCOCCOCCOCCOCCOCCOc1c(OC)cc(Cc3cnc(N)nc3N)cc1OC)C[C@@H](C(C)(C)C)n1cc(C(=O)O)c(=O)cc1-2 [HBX129653] |  |  |  |  |  |  |  | 1180 | A |  |  | A

— patent US11191775B2, “PAPD5 and PAPD7 inhibitors for treating a hepatitis B infection” (HOFFMANN-LA ROCHE INC., priority 2016, dated 2021)
